Literature values as cited in US9603775B2, “Delamination resistant pharmaceutical glass containers containing active pharmaceutical ingredients” (Corning Incorporated, priority 2013, dated 2017).

Legend:
[1] = test system: IL-12 and IL-23 mediated signaling and cytokine cascades; settings: in vitro models

Compound	effect on IL-12 and IL-23 mediated signaling and cytokine cascades [1]	effect on antigen presentation (26S proteasome)
ustekinumab: human IgG1κ monoclonal antibody that binds the p40 subunit of IL-12 and IL-23 cytokines	disrupt IL-12 and IL-23 mediated signaling and cytokine cascades	
CC(C)C[C@H](NC(=O)[C@H](Cc1ccccc1)NC(=O)c1cnccn1)B(O)O [bortezomib, [(1R)-3-methyl-1-[[(2S)-1-oxo-3-phenyl-2-[(pyrazinylcarbonyl)amino]propyl]amino]butyl]boronic acid]		inhibited in a dose dependent manner
